Measurements as given in paper PMC3634096 (The Korean Journal of Physiology & Pharmacology : …, 2013).

Target: GABAC receptor ρ1 subunit (homomeric) (Homo sapiens, UniProt P24046)
Assay: two-electrode voltage clamp in Xenopus oocytes, inhibition of GABA
Assay type: cell-based

Chain of GABAC receptor ρ1 subunit (homomeric) (P24046 22-479): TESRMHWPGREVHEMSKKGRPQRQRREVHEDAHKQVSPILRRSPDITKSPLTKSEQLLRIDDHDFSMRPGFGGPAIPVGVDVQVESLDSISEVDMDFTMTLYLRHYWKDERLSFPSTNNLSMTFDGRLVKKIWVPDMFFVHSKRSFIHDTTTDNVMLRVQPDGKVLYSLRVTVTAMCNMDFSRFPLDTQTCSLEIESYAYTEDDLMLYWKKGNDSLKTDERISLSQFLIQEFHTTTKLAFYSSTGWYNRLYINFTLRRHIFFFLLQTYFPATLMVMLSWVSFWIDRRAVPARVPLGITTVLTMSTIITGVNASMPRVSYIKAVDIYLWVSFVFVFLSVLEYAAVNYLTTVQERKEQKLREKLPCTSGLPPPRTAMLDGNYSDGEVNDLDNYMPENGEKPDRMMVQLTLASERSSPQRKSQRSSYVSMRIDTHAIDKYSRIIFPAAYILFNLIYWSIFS

IC50: 28.9 ± 2.8 µM
SMILES: Oc1ccc(/C=C/c2cc(O)cc(O)c2)cc1 [Res, Resveratrol]
